Data taken from US8338608B2, “Inhibitors of ion channels” (Icagen Inc., priority 2005, dated 2012).

Molecular target: T1, hSCN3A (Homo sapiens, UniProt Q9NY46)
T1 construct: expressed in transfected cells
Test: SCN3A inhibitory activity in HEK cells stably expressing hSCN3A (whole-cell patch clamp / radiotracer efflux HTS)
Assay type: cell-based
Conditions: not given

T1 sequence (Q9NY46 whole entry): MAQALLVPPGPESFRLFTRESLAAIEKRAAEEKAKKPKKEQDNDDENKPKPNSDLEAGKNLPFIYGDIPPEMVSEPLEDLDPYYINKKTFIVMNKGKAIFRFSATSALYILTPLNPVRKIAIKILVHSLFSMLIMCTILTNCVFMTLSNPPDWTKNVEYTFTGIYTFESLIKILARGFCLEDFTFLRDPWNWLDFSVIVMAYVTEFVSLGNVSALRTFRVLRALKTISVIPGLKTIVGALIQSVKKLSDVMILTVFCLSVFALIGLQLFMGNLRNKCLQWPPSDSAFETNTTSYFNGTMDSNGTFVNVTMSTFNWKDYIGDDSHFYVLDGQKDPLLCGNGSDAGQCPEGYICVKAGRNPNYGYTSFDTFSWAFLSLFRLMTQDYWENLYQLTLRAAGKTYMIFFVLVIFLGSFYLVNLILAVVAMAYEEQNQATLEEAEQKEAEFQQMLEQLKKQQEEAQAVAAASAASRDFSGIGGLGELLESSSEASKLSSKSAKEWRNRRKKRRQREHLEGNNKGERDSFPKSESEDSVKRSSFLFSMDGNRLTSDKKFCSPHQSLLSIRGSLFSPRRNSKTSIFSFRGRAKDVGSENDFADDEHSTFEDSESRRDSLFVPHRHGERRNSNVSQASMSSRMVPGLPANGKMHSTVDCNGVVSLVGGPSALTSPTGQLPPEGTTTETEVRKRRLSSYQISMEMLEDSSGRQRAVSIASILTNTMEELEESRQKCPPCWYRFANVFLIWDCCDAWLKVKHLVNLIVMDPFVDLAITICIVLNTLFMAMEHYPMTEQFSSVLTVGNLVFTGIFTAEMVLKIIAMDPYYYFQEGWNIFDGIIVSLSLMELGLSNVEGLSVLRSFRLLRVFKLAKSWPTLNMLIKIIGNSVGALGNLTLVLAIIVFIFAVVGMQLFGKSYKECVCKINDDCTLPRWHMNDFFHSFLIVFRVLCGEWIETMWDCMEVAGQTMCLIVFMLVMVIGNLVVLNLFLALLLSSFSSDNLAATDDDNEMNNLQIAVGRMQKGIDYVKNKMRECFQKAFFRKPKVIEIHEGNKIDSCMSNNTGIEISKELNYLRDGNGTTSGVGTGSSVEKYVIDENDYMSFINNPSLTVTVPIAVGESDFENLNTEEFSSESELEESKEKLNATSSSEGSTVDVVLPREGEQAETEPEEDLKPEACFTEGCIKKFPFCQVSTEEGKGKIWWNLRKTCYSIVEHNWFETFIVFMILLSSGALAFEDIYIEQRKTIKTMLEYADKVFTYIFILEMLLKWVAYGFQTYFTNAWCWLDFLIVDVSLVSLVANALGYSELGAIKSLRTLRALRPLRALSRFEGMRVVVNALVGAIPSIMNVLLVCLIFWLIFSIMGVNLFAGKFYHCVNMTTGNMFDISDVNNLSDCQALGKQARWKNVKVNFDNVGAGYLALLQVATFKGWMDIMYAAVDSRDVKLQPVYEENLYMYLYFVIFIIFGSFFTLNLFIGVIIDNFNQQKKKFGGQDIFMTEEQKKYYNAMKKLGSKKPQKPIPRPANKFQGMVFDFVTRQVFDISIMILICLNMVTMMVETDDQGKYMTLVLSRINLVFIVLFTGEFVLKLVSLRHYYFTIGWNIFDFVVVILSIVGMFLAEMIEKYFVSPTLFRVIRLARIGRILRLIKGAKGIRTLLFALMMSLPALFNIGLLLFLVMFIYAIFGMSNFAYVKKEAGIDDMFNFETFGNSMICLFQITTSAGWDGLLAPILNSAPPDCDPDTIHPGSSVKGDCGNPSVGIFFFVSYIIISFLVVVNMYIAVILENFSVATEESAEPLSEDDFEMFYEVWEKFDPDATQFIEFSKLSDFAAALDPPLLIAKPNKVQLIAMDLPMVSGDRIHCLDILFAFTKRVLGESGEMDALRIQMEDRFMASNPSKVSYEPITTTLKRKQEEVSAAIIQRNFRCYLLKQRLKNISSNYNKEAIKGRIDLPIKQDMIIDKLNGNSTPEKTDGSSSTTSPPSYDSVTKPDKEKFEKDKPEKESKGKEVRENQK

Q: `O=S(=O)(Nc1nccs1)c1ccc(S(=O)(=O)N2CC(COc3cccc(Cl)c3)C2)cc1` [Compound 36, 4-[3-(3-Chloro-phenoxymethyl)-azetidine-1-sulfonyl]-N-thiazol-2-yl-benzenesulfonamide] was tested. Which IC50 did it give?
A: Its IC50 is 100 to 500 nM.

Same assay, conditions: HEK cells stably transfected with hSCN3A; read-out: SCN3A Inhibitory Activity

Q: `O=S(=O)(Nc1ccc(S(=O)(=O)Nc2nccs2)cc1)N[C@@H]1C[C@H]1c1ccccc1` (relative stereo) [Compound 4, N-(trans-2-phenylcyclopropyl)-N′-[4-(N-thiazol-2-yl-sulfonamyl)-phenyl]-sulfamide] was tested. Which IC50 did it give?
A: Its IC50 is under 100 nM.

Q: How did the IC50 turn out when `O=S(=O)(NCC(c1ccccc1)c1ccccc1)Nc1ccc(S(=O)(=O)Nc2nccs2)cc1` [Compound 1] was run?
A: The IC50 was under 100 nM.

Q: How did the IC50 turn out when `O=S(=O)(NCCC(c1ccccc1)c1ccccc1)Nc1ccc(S(=O)(=O)Nc2nccs2)cc1` [Compound 2, N-(3,3-diphenylpropyl]-N′-[4-(N-thiazol-2-yl-sulfonamyl)-phenyl]-sulfamide] was run?
A: Its IC50 is under 100 nM.

Q: For `O=S(=O)(NCCc1ccc(Cl)c(Cl)c1)Nc1ccc(S(=O)(=O)Nc2nccs2)cc1` [Compound 3], which IC50 is on record?
A: The IC50 was under 100 nM.

Q: How did the IC50 turn out when `O=S(=O)(NCCc1ccc(Oc2ccccc2)cc1)Nc1ccc(S(=O)(=O)Nc2nccs2)cc1` [Compound 5, N-[2-(4-phenoxyl-phenyl)-ethyl]-N′-[4-(N-thiazol-2-yl-sulfonamyl)-phenyl]-sulfamide] was run?
A: Its IC50 is under 100 nM.

Q: Which IC50 does the source give for `CC(C)(C)c1ccc(OCCNS(=O)(=O)c2ccc(S(=O)(=O)Nc3ncc(Cl)s3)cc2)cc1` [Compound 6, Benzene-1,4-disulfonic acid 1-{[2-(4-tert-butyl-phenoxy)-ethyl]-amide} 4-[(5-chloro-thiazol-2-yl)-amide]] here?
A: Its IC50 is under 100 nM.

Q: Which IC50 does the source give for `CC(C)(C)CCNS(=O)(=O)c1ccc(S(=O)(=O)Nc2ncc(Cl)s2)cc1` [Compound 7, Benzene-1,4-disulfonic acid 1-[(5-chloro-thiazol-2-yl)-amide] 4-[(3,3-dimethyl-butyl)-amide]] here?
A: Its IC50 is under 100 nM.

Q: With `O=S(=O)(Nc1nccs1)c1ccc(S(=O)(=O)N2CCC(Oc3cccc(Cl)c3)CC2)cc1` [Compound 8, 4-[4-(3-Chloro-phenoxy)-piperidine-1-sulfonyl]-N-thiazol-2-yl-benzenesulfonamide] as the compound, how does the IC50 read?
A: Its IC50 is under 100 nM.

Q: `O=S(=O)(NCC1COc2cc(Cl)c(Cl)cc2O1)c1ccc(S(=O)(=O)Nc2nccs2)cc1` (centres unmarked) [Compound 9, Benzene-1,4-disulfonic acid 1-[(6,7-dichloro-2,3-dihydro-benzo[1,4]dioxin-2-ylmethyl)-amide] 4-thiazol-2-ylamide] was tested. Which IC50 did it give?
A: Its IC50 is under 100 nM.

Q: For `O=S(=O)(Nc1ncc(Cl)s1)c1ccc(S(=O)(=O)N2CCN(c3ccc(Cl)cc3F)CC2)cc1` [Compound 10, 4-[4-(4-Chloro-2-fluoro-phenyl)-piperazine-1-sulfonyl]-N-(5-chloro-thiazol-2-yl)-benzenesulfonamide], which IC50 is on record?
A: The IC50 was under 100 nM.

Q: With `CC(C)(C)c1ccc(CNS(=O)(=O)c2ccc(S(=O)(=O)Nc3nccs3)cc2)cc1` [Compound 11, Benzene-1,4-disulfonic acid 1-(4-tert-butyl-benzylamide) 4-thiazol-2-ylamide] as the compound, how does the IC50 read?
A: The IC50 was under 100 nM.

Q: With `O=S(=O)(NCCCOc1ccc(Cl)cc1)c1ccc(S(=O)(=O)Nc2ncc(Cl)s2)cc1` [Compound 12, Benzene-1,4-disulfonic acid 1-{[3-(4-chloro-phenoxy)-propyl]-amide} 4-[(5-chloro-thiazol-2-yl)-amide]] as the compound, how does the IC50 read?
A: Its IC50 is under 100 nM.

Q: Which IC50 does the source give for `CN(CCNS(=O)(=O)c1ccc(S(=O)(=O)Nc2nccs2)cc1)c1ccc(Cl)cc1` [Compound 13, Benzene-1,4-disulfonic acid 1-({2-[(4-chloro-phenyl)-methyl-amino]-ethyl}-amide) 4-thiazol-2-ylamide] here?
A: The IC50 was under 100 nM.

Q: For `CC(C)(CNS(=O)(=O)c1ccc(S(=O)(=O)Nc2ncc(Cl)s2)cc1)Oc1ccc(C(C)(C)C)cc1` [Compound 14, Benzene-1,4-disulfonic acid 1-{[2-(4-tert-butyl-phenoxy)-2-methyl-propyl]-amide} 4-[(5-chloro-thiazol-2-yl)-amide]], which IC50 is on record?
A: Its IC50 is under 100 nM.

Q: How did the IC50 turn out when `O=S(=O)(NCc1ccc(C(F)(F)F)cc1)c1ccc(S(=O)(=O)Nc2ncc(Cl)s2)cc1` [Compound 15, Benzene-1,4-disulfonic acid 1-[(5-chloro-thiazol-2-yl)-amide] 4-(4-trifluoromethyl-benzylamide)] was run?
A: Its IC50 is under 100 nM.

Q: How did the IC50 turn out when `CC(C)(C)c1ccc(NCCNS(=O)(=O)c2ccc(S(=O)(=O)Nc3nccs3)cc2)cc1` [Compound 16, Benzene-1,4-disulfonic acid 1-{[2-(4-tert-butyl-phenylamino)-ethyl]-amide} 4-thiazol-2-ylamide] was run?
A: Its IC50 is under 100 nM.

Q: For `O=S(=O)(NCC1(Oc2ccc(Cl)cc2)CCC1)c1ccc(S(=O)(=O)Nc2nccs2)cc1` [Compound 17, Benzene-1,4-disulfonic acid 1-{[1-(4-chloro-phenoxy)-cyclobutylmethyl]-amide} 4-thiazol-2-ylamide], which IC50 is on record?
A: The IC50 was under 100 nM.

Q: How did the IC50 turn out when `Cc1cc(OCCNS(=O)(=O)c2ccc(S(=O)(=O)Nc3nccs3)cc2)ccc1Cl` [Compound 18, Benzene-1,4-disulfonic acid 1-{[2-(4-chloro-3-methyl-phenoxy)-ethyl]-amide} 4-thiazol-2-ylamide] was run?
A: The IC50 was under 100 nM.

Q: Which IC50 does the source give for `O=S(=O)(Nc1nccs1)c1ccc(S(=O)(=O)N2CCC[C@H]2COc2ccc(Cl)cc2)cc1` [Compound 19, 4-[(S)-2-(4-chloro-phenoxymethyl)-pyrrolidine-1-sulfonyl]-N-thiazol-2-yl-benzenesulfonamide] here?
A: The IC50 was under 100 nM.

Q: Which IC50 does the source give for `O=S(=O)(NCC1(Oc2ccc(Cl)cc2F)CCC1)c1ccc(S(=O)(=O)Nc2nccs2)cc1` [Compound 20, Benzene-1,4-disulfonic acid 1-{[1-(4-chloro-2-fluoro-phenoxy)-cyclobutylmethyl]-amide} 4-thiazol-2-ylamide] here?
A: The IC50 was under 100 nM.

Q: `O=S(=O)(NCC1(c2ccc(Cl)cc2)CCC1)c1ccc(S(=O)(=O)Nc2nccs2)cc1` [Compound 21, Benzene-1,4-disulfonic acid 1-{[1-(4-chloro-phenyl)-cyclobutylmethyl]-amide} 4-thiazol-2-ylamide] was tested. Which IC50 did it give?
A: The IC50 was under 100 nM.

Q: Which IC50 does the source give for `O=S(=O)(NCCC(c1ccccc1)c1ccccc1)Nc1ccc(S(=O)(=O)Nc2nccs2)nc1` [Compound 22] here?
A: Its IC50 is 100 to 500 nM.

Q: With `O=S(=O)(Nc1nccs1)c1ccc(NS(=O)(=O)N2CCN(c3ccc(Cl)c(Cl)c3)CC2)cc1` [Compound 23, 4-(3,4-Dichloro-phenyl)-piperazine-1-sulfonic acid [4-(thiazol-2-ylsulfamoyl)-phenyl]-amide] as the compound, how does the IC50 read?
A: Its IC50 is 100 to 500 nM.

Q: For `O=S(=O)(NCC(c1ccccc1)c1ccccc1)c1ccc(S(=O)(=O)Nc2nccs2)cc1` [Compound 24, Benzene-1,4-disulfonic acid 1-[(2,2-diphenyl-ethyl)-amide] 4-thiazol-2-ylamide], which IC50 is on record?
A: The IC50 was 100 to 500 nM.

Q: For `O=S(=O)(NCCc1ccc(Cl)c(Cl)c1)c1cc(F)c(S(=O)(=O)Nc2nccs2)cc1F` [Compound 25, 2,5-Difluoro-benzene-1,4-disulfonic acid 1-{[2-(3,4-dichloro-phenyl)-ethyl]-amide} 4-thiazol-2-ylamide], which IC50 is on record?
A: The IC50 was 100 to 500 nM.

Q: How did the IC50 turn out when `O=S(=O)(Nc1ncc(Cl)s1)c1ccc(S(=O)(=O)N2CC(Oc3ncc(C(F)(F)F)cc3Cl)C2)cc1` [Compound 26, N-(5-chloro-thiazol-2-yl)-4-[3-(3-chloro-5-trifluoromethyl-pyridin-2-yloxy)-azetidine-1-sulfonyl]-benzenesulfonamide] was run?
A: The IC50 was 100 to 500 nM.

Q: `O=S(=O)(NCCc1ccc(Cl)cc1)c1ccc(S(=O)(=O)Nc2nccs2)cc1` [Compound 27, Benzene-1,4-disulfonic acid 1-{[2-(4-chloro-phenyl)-ethyl]-amide} 4-thiazol-2-ylamide] was tested. Which IC50 did it give?
A: The IC50 was 100 to 500 nM.

Q: For `O=S(=O)(Nc1ncc(Cl)s1)c1ccc(S(=O)(=O)N2CC(=Cc3ccc(Cl)c(Cl)c3)C2)cc1` [Compound 28, N-(5-chloro-thiazol-2-yl)-4-[3-(3,4-dichloro-benzylidene)-azetidine-1-sulfonyl]-benzenesulfonamide], which IC50 is on record?
A: The IC50 was 100 to 500 nM.

Q: With `O=S(=O)(Nc1nccs1)c1ccc(S(=O)(=O)N2CCC(Cc3ccc(Cl)cc3)CC2)cc1` [Compound 29, 4-[4-(4-Chloro-benzyl)-piperidine-1-sulfonyl]-N-thiazol-2-yl-benzenesulfonamide] as the compound, how does the IC50 read?
A: Its IC50 is 100 to 500 nM.

Q: `O=S(=O)(Nc1nccs1)c1ccc(S(=O)(=O)NC2CCCCCC2)cc1` [Compound 30, Benzene-1,4-disulfonic acid 1-cycloheptylamide 4-thiazol-2-ylamide] was tested. Which IC50 did it give?
A: The IC50 was 100 to 500 nM.

Q: How did the IC50 turn out when `CC(C)(CNS(=O)(=O)c1ccc(S(=O)(=O)Nc2nccs2)cc1)Nc1ccc(C(C)(C)C)cc1` [Compound 31, Benzene-1,4-disulfonic acid 1-{[2-(4-tert-butyl-phenylamino)-2-methyl-propyl]-amide} 4-thiazol-2-ylamide] was run?
A: The IC50 was 100 to 500 nM.

Q: With `C[C@H](CNS(=O)(=O)c1ccc(S(=O)(=O)Nc2ncc(Cl)s2)cc1)Oc1ccc(Cl)cc1` [Compound 32, Benzene-1,4-disulfonic acid 1-{[(R)-2-(4-chloro-phenoxy)-propyl]-amide} 4-[(5-chloro-thiazol-2-yl)-amide]] as the compound, how does the IC50 read?
A: The IC50 was 100 to 500 nM.

Q: For `C[C@@H](CNS(=O)(=O)c1ccc(S(=O)(=O)Nc2ncc(Cl)s2)cc1)Oc1ccc(Cl)cc1` [Compound 33, Benzene-1,4-disulfonic acid 1-{[(S)-2-(4-chloro-phenoxy)-propyl]-amide} 4-[(5-chloro-thiazol-2-yl)-amide]], which IC50 is on record?
A: The IC50 was 100 to 500 nM.

Q: Which IC50 does the source give for `O=S(=O)(NCCOc1ccc(Cl)cc1F)c1ccc(S(=O)(=O)Nc2nccs2)cc1` [Compound 34, Benzene-1,4-disulfonic acid 1-{[2-(4-chloro-2-fluoro-phenoxy)-ethyl]-amide} 4-thiazol-2-ylamide] here?
A: The IC50 was 100 to 500 nM.

Q: Which IC50 does the source give for `CN(CCOc1ccc(C(C)(C)C)cc1)S(=O)(=O)c1ccc(S(=O)(=O)Nc2nccs2)cc1` [Compound 35, Benzene-1,4-disulfonic acid 1-{[2-(4-tert-butyl-phenoxy)-ethyl]-methyl-amide} 4-thiazol-2-ylamide] here?
A: The IC50 was 100 to 500 nM.

Q: `COc1ccc(CNS(=O)(=O)c2ccc(S(=O)(=O)Nc3nccs3)cc2)cc1Cl` [Compound 37, Benzene-1,4-disulfonic acid 1-(3-chloro-4-methoxy-benzylamide) 4-thiazol-2-ylamide] was tested. Which IC50 did it give?
A: The IC50 was 100 to 500 nM.

Q: How did the IC50 turn out when `CC(C)(C)c1ccc(OC2(CNS(=O)(=O)c3ccc(S(=O)(=O)Nc4nccs4)cc3)CCCC2)cc1` [Compound 38, Benzene-1,4-disulfonic acid 1-{[1-(4-tert-butyl-phenoxy)-cyclopentylmethyl]-amide} 4-thiazol-2-ylamide] was run?
A: Its IC50 is 100 to 500 nM.
